# Assay results taken from patent publication US20160333019A1, “SYNTHESIS AND FORMULATIONS OF PORPHYRIN COMPOUNDS” (Aeolus Sciences, Inc., priority 2013, published 2016).
# How the values were obtained:
# Assay type in all cases: physicochemical
# [1] = Solid form stability: vapor diffusion, drying, grinding, competitive slurry, by XRPD
# Experimental: Vapor Diffusion into Solid. Form I was used along with 21 solvent system to evaluate the effect of vapor diffusion on polymorphic behavior. About 2 mL solvent was added to a 20 mL scintillation vial. Furthermore, about 30 mg of solid was added to an open 2 mL HPLC vial and the whole vial was placed inside the bigger vial which contained the solvent. […] Both methanol and ethanol ended up with a mixture of Form I and Form VII. Form I kept its integrity at relative humidity of up to 85% which was generated using saturated potassium chloride.
# Drying and Thermal Treatment Studies. A sample was produced using 3 eq. of Mn(III) acetate. The slurry was filtered at ambient without any precautions. The relative humidity of the lab was at 54% at the time of filtration. The wet cake was washed with acetonitrile followed by XRPD analysis which conformed to Form I. The wet cake was dried on a XRPD plate with dome in the over at 40° C., under vacuum for overnight. Then, the sample holder was capped while in the oven followed by XRPD analysis. The resulting solid was a Form III. Then, the cap of the domed holder was opened and allowed the dry solid to be exposed to ambient at RH of 54%.
# Wet and Dry Grinding Studies. Form I was ground using mortar and pestle under dry and wet conditions. The solvents in wet grinding were acetonitrile, acetonitrile:water (98:2) and ethyl acetate. […] It should be noted that the grinding was performed under ambient conditions where relative humidity was around 50-60%.
# Competitive Slurry Experiments. Mixture of six crystal forms (I, II, III, V, VI and VII) were slurried in three different solvents (acetonitrile acetonitrile:water (98:2) and ethyl acetate), at 25±2° C. for 5 days followed by filtration under nitrogen inert condition. About 20 mg of each polymorph added to the vials. The total weight was […] in each vial and 0.75 mL solvent was added. After filtration, the cake was washed with the same solvent as the one used in the slurry. The cake was placed on a sample holder and sealed using the X-ray transparent dome and analyzed using XRPD. The cap was then removed and solid was dried at 45° C. and under vacuum for half a day. The dry sample was then sealed under nitrogen inert environment and analyzed by XRPD. The next step was to expose the dry sample to about 50% relative humidity for 30 minutes followed by XRPD analysis. In the case of acetonitrile, the wet cake was a new pattern designated as Form IV. In acetonitrile:water (98:2), the resulting solid was low crystalline Form I. It seemed that 2 vol % water was not enough to result in a crystalline hydrate. In the case of ethyl acetate, the solid was also low crystalline Form I plus a few extra peaks. The water in starting Form I could have been enough to result in a low crystalline Form I with some extra peaks of the starting forms in hydrophobic ethyl acetate. This was not observed in neat acetonitrile due to affinity of this solvent for water. […] Theoretically, the same water quantity in ethyl acetate results in higher water activity than in acetonitrile.
# Form II is the wet cake out of reaction mixture unexposed to moisture. Section 3.3.2.3 (reactive crystallization) describes the procedure of making Form II. FIG. 15 illustrates the XRPD of Form II. For XRPD analysis, a silicon plate with dome was used to prevent exposure to ambient. Form III is the result of drying of any of the solid forms. […] Due to instability, some peaks might be shifted if the same sample is repeated multiple times. FIG. 16 illustrates the XRPD of Form III. For XRPD analysis, a silicon plate with dome was used to prevent exposure to ambient. Form IV is the wet cake from slurrying all the solid forms in acetonitrile for at least 5 days and at room temperature. This form is unstable and upon exposure to moisture, it converts to Form I. FIG. 17 illustrates the XRPD of Form IV. For XRPD analysis, a silicon plate with dome was used to prevent exposure to ambient. […]
# [2] = Humidity stability of Form I, dynamic vapor sorption and equilibrium water uptake; settings: equilibrium
# Experimental: Dynamic Vapor Sorption (DVS). Samples were analyzed using an […]™ DVS-2 gravimetric water sorption analyzer. The relative humidity was adjusted between 2-95% and the weight of sample was continuously monitored and recorded.
# Humidity Stability of Form I. Form I was exposed to a typical relative humidity range that most labs will experience e.g. 15-75% at 25° C. Initially the chamber relative humidity was adjusted at 50%. Then the RH was cycled between 15 to 75% and weight was monitored. FIG. 18 illustrates the changes in weight as a function of relative humidity. If the solid is equilibrated at 50% relative humidity the variation in weight would about ±2 wt % between 15-75% RH. Furthermore, an equilibrium study was performed at various relative humidity environments for extended time. Table 5.6 show the equilibrium % water uptake at various humidity levels.
# [3] = Air oxidation of the Mn(II) form
# Experimental: Without being bound to any particular theory, the chemistry occurring when the pH of the 75 mg/mL solution rises from 4 to 9 over the 16-24 hour period may result from the presence of different oxidation states of Mn(II) and (III).
# One proton is consumed per one molecule of Mn (II) porphyrin complex in the oxidation process. In the absence of acid (for example in WFI water) the oxidation process is expected to be slower and generates hydroxyl-ions: […]
compound,measurement,setting,value
"CCn1cc[n+](CC)c1-c1c2nc(c(-c3n(CC)cc[n+]3CC)c3ccc([n-]3)c(-c3n(CC)cc[n+]3CC)c3nc(c(-c4n(CC)cc[n+]4CC)c4ccc1[n-]4)C=C3)C=C2.O.[Cl-].[Cl-].[Cl-].[Cl-].[Cl-].[Mn+3] [Form III, [5,10,15,20-tetrakis(1,3-diethylimidazolium-2-yl)porphyrinato]manganese(III) chloride hydrate complex]",stability of crystal form upon exposure to moisture,[1],unstable and rapidly converts to Form I
same,time to full conversion to Form I,[1]; dry solid exposed to ambient at RH of 54%,less than half an hour
same,% water uptake,[2]; relative humidity 2 %,0.00%
"CCn1cc[n+](CC)c1-c1c2nc(c(-c3n(CC)cc[n+]3CC)c3ccc([n-]3)c(-c3n(CC)cc[n+]3CC)c3nc(c(-c4n(CC)cc[n+]4CC)c4ccc1[n-]4)C=C3)C=C2.O.[Cl-].[Cl-].[Cl-].[Cl-].[Cl-].[Mn+3] [Form I, [5,10,15,20-tetrakis(1,3-diethylimidazolium-2-yl)porphyrinato]manganese(III) chloride hydrate complex]",stability of crystal form,[1]; ambient conditions and relative humidity as low as 15%,stable
same,relative stability among crystal forms,"[1]; competitive slurry of forms I, II, III, V, VI and VII, exposure to moisture",most stable crystal form
same,stability under grinding conditions,"[1]; dry and wet grinding, mortar and pestle, ambient, relative humidity 50-60%",pretty stable
same,relative humidity up to which the form kept its integrity,"[1]; vapor diffusion, 6 days exposure, saturated potassium chloride",up to 85%
same,% water uptake,[2]; relative humidity 20 %,13.50%
same,% water uptake,[2]; relative humidity 40 %,15.01%
same,% water uptake,[2]; relative humidity 75 %,16.83%
same,% water uptake,[2]; relative humidity 80 %,19.06%
"[5,10,15,20-tetrakis(1,3-diethylimidazolium-2-yl)porphyrinato]manganese(III) chloride hydrate complex [Form IV]",stability of crystal form upon exposure to moisture,[1],unstable
CCn1cc[n+](CC)c1-c1c2nc(c(-c3n(CC)cc[n+]3CC)c3ccc([n-]3)c(-c3n(CC)cc[n+]3CC)c3nc(c(-c4n(CC)cc[n+]4CC)c4ccc1[n-]4)C=C3)C=C2.[Mn+2] [Mn(II) form],half-life of oxidation by air,[3]; aqueous solution containing 0.1% TFA,5 to 7 min
same,stability in air,[3]; solid state,relatively stable
